We go through 25 compounds from ChEMBL document CHEMBL5046282, “Discovery of Brain-Penetrant Glucosylceramide Synthase Inhibitors with a Novel Pharmacophore” (J Med Chem, 2022).

Values after ≈ are worked out from the molar mass of the structure shown. Active and inactive are the calls of the source. The rule behind the calls is not given here. Where only a bound is given, the exact number is not on record here.

One data set has as its target hERG (Homo sapiens, UniProt Q12809). Nature of the data set: Inhibition of hERG expressed in CHO-K1 cells at 10 uM incubated for 5 mins by whole cell-automated voltage clamp analysis. The class given is toxicity, cell-based. To be noted: CHO-K1 cells expressing hERG.
Data set [1] is described as follows: Efflux ratio of apparent permeability from basolateral to apical side over apical to basolateral side in dog MDCK-MDR1 cells at 1 uM measured after 1 hr by LC-MS/MS analysis. Type of data set: ADME, cell-based, Canis lupus familiaris.
A short description of data set [2]: 1-Octanol/aqueous buffer partition coefficient, logD of the compound at pH 7.4 by chromatographic method. Type of data set: physicochemical.
In data set [3] the target is T1, Ceramide glucosyltransferase (Homo sapiens, UniProt Q16739).
T1 sequence (Q16739 whole entry): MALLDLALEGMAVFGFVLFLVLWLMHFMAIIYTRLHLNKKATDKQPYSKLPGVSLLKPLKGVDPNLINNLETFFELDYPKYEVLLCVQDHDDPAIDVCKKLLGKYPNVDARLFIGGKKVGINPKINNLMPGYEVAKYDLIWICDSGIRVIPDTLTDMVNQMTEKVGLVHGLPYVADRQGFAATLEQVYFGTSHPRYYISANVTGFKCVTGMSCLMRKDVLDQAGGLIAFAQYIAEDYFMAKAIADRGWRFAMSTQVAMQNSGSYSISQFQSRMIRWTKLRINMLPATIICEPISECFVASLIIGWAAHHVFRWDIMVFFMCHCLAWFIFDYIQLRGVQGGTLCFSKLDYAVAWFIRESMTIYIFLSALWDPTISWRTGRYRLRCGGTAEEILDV
Description: Inhibition of human GCS using C8-ceramide and UDP-glucose as substrate incubated for 1 hr by RapidFire mass spectrometry.

The nature of data set [4]: Intrinsic clearance in mouse liver microsomes at 1 uM in presence of NADPH generating system assessed per mg protein by LC-MS/MS analysis. Type of data set: ADME, Microsome. To be noted: read-out: CLH.
Data set [5] can be described thus: Kinetic solubility of the compound in JP2 fluid at pH 6.8 by precipitation method. To be noted: read-out: Kinetic_solubility. The class given is physicochemical.
Data set [6] concerns the target T2, Ceramide glucosyltransferase (Homo sapiens) (UniProt Q16739).
T2 sequence (whole entry): T1 sequence (Q16739 whole entry)
Nature of the data set: Uncompetitive inhibition of GCS (unknown origin) using 1 to 70 uM C8-ceramide and 0.1 to 200 uM UDP-glucose as substrate incubated for 1 hr by RapidFire mass spectrometry.

hERG, sequence (Q12809 whole entry): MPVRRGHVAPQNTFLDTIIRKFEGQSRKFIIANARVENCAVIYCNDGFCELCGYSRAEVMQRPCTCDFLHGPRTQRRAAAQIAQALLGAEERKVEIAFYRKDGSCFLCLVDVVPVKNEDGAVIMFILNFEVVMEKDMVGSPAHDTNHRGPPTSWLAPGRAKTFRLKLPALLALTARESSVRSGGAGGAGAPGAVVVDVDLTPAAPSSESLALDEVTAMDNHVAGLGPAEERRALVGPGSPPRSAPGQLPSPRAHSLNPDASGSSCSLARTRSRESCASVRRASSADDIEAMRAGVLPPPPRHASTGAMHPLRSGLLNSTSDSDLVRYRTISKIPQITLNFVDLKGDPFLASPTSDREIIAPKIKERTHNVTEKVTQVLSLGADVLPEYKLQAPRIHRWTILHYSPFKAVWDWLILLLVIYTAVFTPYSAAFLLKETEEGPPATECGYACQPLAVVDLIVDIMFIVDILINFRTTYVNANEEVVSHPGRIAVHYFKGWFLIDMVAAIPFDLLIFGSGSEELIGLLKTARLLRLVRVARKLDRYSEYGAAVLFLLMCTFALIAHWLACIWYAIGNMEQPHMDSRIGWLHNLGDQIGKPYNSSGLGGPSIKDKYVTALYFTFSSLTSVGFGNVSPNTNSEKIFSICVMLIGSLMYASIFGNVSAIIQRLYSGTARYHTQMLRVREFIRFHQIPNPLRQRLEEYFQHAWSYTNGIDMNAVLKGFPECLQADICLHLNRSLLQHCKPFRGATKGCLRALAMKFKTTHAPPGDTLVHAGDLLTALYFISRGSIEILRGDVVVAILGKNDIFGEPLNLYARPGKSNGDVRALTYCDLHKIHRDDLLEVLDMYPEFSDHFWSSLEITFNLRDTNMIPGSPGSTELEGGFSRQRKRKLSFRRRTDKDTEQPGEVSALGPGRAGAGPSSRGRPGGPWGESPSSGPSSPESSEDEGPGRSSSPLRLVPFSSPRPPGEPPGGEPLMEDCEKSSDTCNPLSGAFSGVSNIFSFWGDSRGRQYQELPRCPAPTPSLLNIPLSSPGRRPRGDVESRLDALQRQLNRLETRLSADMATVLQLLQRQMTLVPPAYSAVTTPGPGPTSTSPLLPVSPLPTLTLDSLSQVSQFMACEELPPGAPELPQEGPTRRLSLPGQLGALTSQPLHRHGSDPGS

As a reminder, the inhibition is how much of the control response was suppressed. As a reminder, the efflux ratio is a quotient of directional permeabilities that is used to spot active efflux. The term chromatographic logD denotes lipophilicity estimated from chromatographic retention. A lower chromatographic logD goes with lower lipophilicity. Broadly, the IC50 is the concentration needed to halve the response being measured. As to `CN(C)C(=O)c1ccc(N2Cc3c(ccnc3-c3ccc(F)cc3OCC(F)(F)F)C2=O)cc1`, the inhibition at 5 min, 10 µM against hERG stood at 41.8%. For the same compound, the efflux ratio at 1 h, 1 µM in data set [1] turned out to be 35. This compound had a chromatographic logD in data set [2] of 1.99. The compound also registered an IC50 in data set [3] of 700 nM.
`CC(C)(O)c1ccc(NC(=O)c2cccc(-c3ccccc3OCC(F)(F)F)c2F)cc1`: the efflux ratio at 1 h, 1 µM in data set [1] came out at 1.9. In data set [2], this compound returned a chromatographic logD of 3.06. The IC50 in data set [3] came to 45 nM.
With `O=C1c2ccnc(-c3ccccc3)c2CN1c1ccccc1`, the IC50 in data set [3] is greater than 100000 nM. The microsomal CLint at 1 µM in data set [4] is greater than 768 µL/min/mg.
For the compound `COc1ccccc1-c1cccc2c1CN(c1ccccc1)C2=O`, the solubility kinetic in data set [5] was less than 0.1 µg/mL. Also, in data set [2], the chromatographic logD was found to be 3.87. Also, the IC50 in data set [3] is 2400 nM.
For `COc1ccccc1-c1ccnc2c1CN(c1ccccc1)C2=O`, in that order: 4 µg/mL (≈ 12.6 µM), 2.81 and 17000 nM.
Regarding `COc1ccccc1-c1nccc2c1CN(c1ccc(F)cc1)C2=O`, it took 1000 nM to reach half-maximal inhibition in data set [3] (IC50). Besides, in data set [4], the microsomal CLint at 1 µM worked out at 509 µL/min/mg.
On to `COc1ccccc1-c1cncc2c1CN(c1ccccc1)C2=O`, for which the solubility kinetic in data set [5] was found to be 0.9 µg/mL (≈ 2.84 µM). Besides, the chromatographic logD in data set [2] was 2.94. In data set [3], the IC50 was 1300 nM.
Turning to `COc1cc(F)ccc1-c1nccc2c1CN(c1ccc(F)cc1)C2=O`, in data set [3], inhibition was half-maximal at 4900 nM (IC50). In data set [4], the microsomal CLint at 1 µM amounted to 131 µL/min/mg.
On to `COc1ccccc1-c1nccc2c1CN(c1ccccc1)C2=O`, for which the solubility kinetic in data set [5] was determined as 18 µg/mL (≈ 56.9 µM). Moreover, the chromatographic logD in data set [2] worked out at 2.84. The compound further had an IC50 in data set [3] of 1900 nM. Moreover, the microsomal CLint at 1 µM in data set [4] was greater than 768 µL/min/mg.
In the case of `CC(C)(O)c1ccc(NC(=O)c2ccnn(-c3ccc(F)cc3OCC(F)(F)F)c2=O)cc1`, the efflux ratio at 1 h, 1 µM in data set [1] stood at 6.6. Further, the chromatographic logD in data set [2] turned out to be 2.55. Also, in data set [3], the IC50 is 49 nM.
In turn, `CS(=O)(=O)c1ccc(N2Cc3c(ccnc3-c3ccc(F)cc3OCC(F)(F)F)C2=O)cc1` came in with an inhibition at 5 min, 10 µM against hERG of 23.7%. Further, the efflux ratio at 1 h, 1 µM in data set [1] was 32. In data set [2], this compound displayed a chromatographic logD of 1.86. The compound also had an IC50 in data set [3] of 630 nM.
Regarding `CC(C)(O)c1ccc(NC(=O)c2cccc(-c3ccccc3OCC(F)(F)F)c2)cc1`, in data set [1], the efflux ratio at 1 h, 1 µM stood at 3. The same compound displayed a chromatographic logD in data set [2] of 3.16. Moreover, half-maximal inhibition in data set [3] (IC50) was put at 3200 nM.
Consider `COc1ccccc1-c1nccc2c1CN(c1ccccc1C)C2=O`, for which, in data set [3], the IC50 was greater than 100000 nM. Further, the microsomal CLint at 1 µM in data set [4] was 560 µL/min/mg.
On to `CC(C)(O)c1ccc(NC(=O)c2cccn(-c3ccccc3OCC(F)(F)F)c2=O)cc1`, for which the efflux ratio at 1 h, 1 µM in data set [1] is 15. The chromatographic logD in data set [2] is 2.12. Moreover, in data set [3], the IC50 amounted to 19 nM.
`COc1ccccc1-c1nccc2c1CN(c1cccc(C)c1)C2=O` had an IC50 in data set [3] of 4400 nM. The microsomal CLint at 1 µM in data set [4] came to 584 µL/min/mg.
With `CCCCCCCC(=O)N[C@H](CN1CCCC1)[C@H](O)c1ccc2c(c1)OCCO2`, the inhibition entry in data set [6] is “Active”.
Regarding `O=C1c2ccnc(-c3ccc(F)cc3OC(F)(F)F)c2CN1c1ccc(F)cc1`, the solubility kinetic in data set [5] is less than 0.15 µg/mL. Also, at hERG, the inhibition at 5 min, 10 µM is 51.4%. The efflux ratio at 1 h, 1 µM in data set [1] was 2.6. The same compound came in with a chromatographic logD in data set [2] of 3. For the same compound, in data set [3], inhibition was half-maximal at 49 nM (IC50). Also, the microsomal CLint at 1 µM in data set [4] was 14 µL/min/mg.
As for `CC(C)(O)COc1ccc(N2Cc3c(ccnc3-c3ccc(F)cc3OCC(F)(F)F)C2=O)cc1`, the inhibition at 5 min, 10 µM against hERG was found to be 17.6%. Moreover, in data set [1], the efflux ratio at 1 h, 1 µM is 7.3. The compound also yielded a chromatographic logD in data set [2] of 2.67. Moreover, in data set [3], the IC50 came to 40 nM.
Regarding `COc1cccc(-c2nccc3c2CN(c2ccccc2)C3=O)c1`, in data set [3], the IC50 was greater than 100000 nM. In addition, in data set [4], the microsomal CLint at 1 µM is greater than 768 µL/min/mg.
Compound `CC(C)(C#N)c1ccc(N2Cc3c(ccnc3-c3ccc(F)cc3OCC(F)(F)F)C2=O)cc1` displayed an inhibition at 5 min, 10 µM against hERG of 39.4%. The efflux ratio at 1 h, 1 µM in data set [1] came out at 4. In addition, in data set [2], the chromatographic logD was 2.86. For the same compound, the IC50 in data set [3] worked out at 17 nM.
Take `CC(C)(O)c1ccc(NC(=O)c2cccc(-c3ccccc3OCC(F)(F)F)n2)cc1`: the efflux ratio at 1 h, 1 µM in data set [1] is 2.2. Further, the chromatographic logD in data set [2] worked out at 3.6. In addition, the IC50 in data set [3] came out at 170 nM.
As for `COc1ccccc1-n1ncc2c1CN(c1ccccc1)C2=O`, the solubility kinetic in data set [5] was determined as 22 µg/mL (≈ 72.1 µM). The chromatographic logD in data set [2] worked out at 2.45. Also, the IC50 in data set [3] stood at 4400 nM.
In the case of `COc1ccccc1-c1nccc2c1CN(C1CCCCC1)C2=O`, the concentration for half-maximal inhibition (IC50) in data set [3] is greater than 100000 nM. The microsomal CLint at 1 µM in data set [4] stood at 727 µL/min/mg.
For the compound `COc1ccccc1-c1ccc2c(c1)CN(c1ccccc1)C2=O`, in data set [3], the IC50 was greater than 100000 nM.
As to `COc1ccccc1-c1nccc2c1CN(c1ccc(C)cc1)C2=O`, in data set [3], it took 97 nM to reach half-maximal inhibition (IC50). Also, in data set [4], the microsomal CLint at 1 µM is greater than 768 µL/min/mg.
